ChEMBL document CHEMBL4725475, “Discovery of Potent and Selective 7-Azaindole Isoindolinone-Based PI3Kγ Inhibitors” (ACS Med Chem Lett, 2020)

What was measured:
[1] = molecular target: T1, Phosphatidylinositol 4,5-bisphosphate 3-kinase catalytic subunit gamma isoform (Homo sapiens, UniProt P48736); experiment: Inhibition of PI3K p120gamma (unknown origin) using phosphatidylinositol 4,5-bisphosphate as substrate in presence of ATP incubated for 60 mins by ADP-Glo assay
[2] = species on record: Homo sapiens; experiment: Selectivity index, ratio of inhibition for PI3Kalpha (unknown origin) to inhibition for PI3K p120 gamma (unknown origin) using phosphatidylinositol 4,5-bisphosphate as substrate in presence of ATP incubated for 60 mins by ADP-Glo assay
[3] = species on record: Homo sapiens; experiment: Selectivity index, ratio of inhibition for PI3Kdelta (unknown origin) to inhibition for PI3K p120 gamma (unknown origin) using phosphatidylinositol 4,5-bisphosphate as substrate in presence of ATP incubated for 60 mins by ADP-Glo assay
[4] = molecular target: T1, Phosphatidylinositol 4,5-bisphosphate 3-kinase catalytic subunit gamma isoform; experiment: Inhibition of PI3Kgamma in human THP-1 cells assessed as reduction in Akt phosphorylation at S473 residue incubated for 60 mins measured after 120 mins by alphalisa assay; type: cell-based
[5] = Intrinsic clearance in cryopreserved human hepatocytes assessed as per million cells at 0.5 uM by LC-MS/MS analysis; type: ADME, cell-based, Hepatocyte
[6] = Intrinsic clearance in rat hepatocytes assessed as per million cells; type: ADME, cell-based, Hepatocyte
[7] = Clearance in Sprague-Dawley rat at 0.25 mg/kg, iv measured upto 8 hrs by LC/MS/MS analysis; type: ADME, organism-based; details: in vivo
[8] = molecular target: T2, Cytochrome P450 1A2 (Homo sapiens, UniProt P05177); experiment: Inhibition of CYP1A2 (unknown origin) using phenacetin as substrate measured after 5 to 20 mins in presence of NADPH by LC-MS/MS analysis; type: ADME
T2 sequence (P05177 whole entry): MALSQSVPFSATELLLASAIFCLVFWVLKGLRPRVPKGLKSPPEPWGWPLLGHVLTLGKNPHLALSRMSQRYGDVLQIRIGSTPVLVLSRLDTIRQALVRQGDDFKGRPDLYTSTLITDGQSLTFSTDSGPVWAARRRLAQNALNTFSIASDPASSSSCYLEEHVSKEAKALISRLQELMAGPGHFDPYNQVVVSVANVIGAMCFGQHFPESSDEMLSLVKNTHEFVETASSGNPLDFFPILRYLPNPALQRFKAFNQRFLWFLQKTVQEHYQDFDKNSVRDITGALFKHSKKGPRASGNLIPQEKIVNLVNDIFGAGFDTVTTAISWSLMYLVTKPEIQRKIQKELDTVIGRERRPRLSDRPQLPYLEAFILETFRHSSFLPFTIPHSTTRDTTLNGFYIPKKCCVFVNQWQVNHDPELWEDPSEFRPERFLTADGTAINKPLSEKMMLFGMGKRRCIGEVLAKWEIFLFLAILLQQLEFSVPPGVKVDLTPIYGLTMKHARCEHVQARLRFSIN

[9] = molecular target: Cytochrome P450 2D6 (Homo sapiens, UniProt P10635); experiment: Inhibition of CYP2D6 (unknown origin) using diclofenac as substrate measured after 5 to 20 mins in presence of NADPH by LC-MS/MS analysis; type: ADME
Sequence of Cytochrome P450 2D6 (P10635 whole entry): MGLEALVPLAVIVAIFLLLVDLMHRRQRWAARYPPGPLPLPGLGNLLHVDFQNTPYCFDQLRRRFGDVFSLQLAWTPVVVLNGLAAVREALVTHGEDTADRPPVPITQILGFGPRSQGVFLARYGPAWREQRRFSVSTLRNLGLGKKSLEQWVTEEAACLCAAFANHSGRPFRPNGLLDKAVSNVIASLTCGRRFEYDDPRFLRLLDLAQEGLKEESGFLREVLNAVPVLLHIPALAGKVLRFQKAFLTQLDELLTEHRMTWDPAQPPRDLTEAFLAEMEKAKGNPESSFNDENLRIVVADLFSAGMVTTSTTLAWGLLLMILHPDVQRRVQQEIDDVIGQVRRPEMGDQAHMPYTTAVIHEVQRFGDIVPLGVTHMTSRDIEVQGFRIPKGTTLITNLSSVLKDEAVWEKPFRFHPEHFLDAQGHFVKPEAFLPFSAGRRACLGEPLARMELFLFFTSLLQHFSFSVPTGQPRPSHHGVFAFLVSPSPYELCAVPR

[10] = molecular target: Cytochrome P450 2C9 (Homo sapiens, UniProt P11712); experiment: Inhibition of CYP2C9 (unknown origin) using diclofenac as substrate measured after 5 to 20 mins in presence of NADPH by LC-MS/MS analysis; type: ADME
Sequence of Cytochrome P450 2C9 (P11712 whole entry): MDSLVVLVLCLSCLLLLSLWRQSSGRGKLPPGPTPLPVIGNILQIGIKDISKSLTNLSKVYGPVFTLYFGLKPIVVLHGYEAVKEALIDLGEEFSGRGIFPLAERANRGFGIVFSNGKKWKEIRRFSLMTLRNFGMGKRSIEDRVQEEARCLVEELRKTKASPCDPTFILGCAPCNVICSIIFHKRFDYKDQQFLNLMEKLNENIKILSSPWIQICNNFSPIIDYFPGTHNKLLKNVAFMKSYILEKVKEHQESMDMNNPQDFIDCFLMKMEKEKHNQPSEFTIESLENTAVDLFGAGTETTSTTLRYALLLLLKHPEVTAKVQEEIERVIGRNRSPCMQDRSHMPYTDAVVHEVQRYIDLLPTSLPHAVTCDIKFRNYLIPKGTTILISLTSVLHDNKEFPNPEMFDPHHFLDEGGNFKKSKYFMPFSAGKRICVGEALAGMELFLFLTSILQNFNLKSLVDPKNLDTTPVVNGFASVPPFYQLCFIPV

[11] = molecular target: Cytochrome P450 2C19 (Homo sapiens, UniProt P33261); experiment: Inhibition of CYP2C19 (unknown origin) using S-mephenytoin as substrate measured after 5 to 20 mins in presence of NADPH by LC-MS/MS analysis; type: ADME
Sequence of Cytochrome P450 2C19 (P33261 whole entry): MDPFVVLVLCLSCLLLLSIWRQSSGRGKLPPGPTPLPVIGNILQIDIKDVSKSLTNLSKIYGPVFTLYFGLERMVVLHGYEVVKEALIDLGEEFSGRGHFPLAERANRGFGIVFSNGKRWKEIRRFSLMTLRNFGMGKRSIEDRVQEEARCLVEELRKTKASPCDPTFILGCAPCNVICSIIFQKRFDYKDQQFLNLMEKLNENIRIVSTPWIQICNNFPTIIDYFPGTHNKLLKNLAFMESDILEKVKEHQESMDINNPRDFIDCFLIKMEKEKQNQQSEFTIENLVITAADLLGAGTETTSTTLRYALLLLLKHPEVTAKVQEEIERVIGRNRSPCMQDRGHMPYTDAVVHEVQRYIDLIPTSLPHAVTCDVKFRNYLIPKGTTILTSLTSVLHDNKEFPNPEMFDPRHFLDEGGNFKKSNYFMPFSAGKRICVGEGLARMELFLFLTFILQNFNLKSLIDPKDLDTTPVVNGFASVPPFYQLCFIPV

[12] = molecular target: Cytochrome P450 3A4 (Homo sapiens, UniProt P08684); experiment: Inhibition of CYP3A4 (unknown origin) using midazolam as substrate measured after 5 to 20 mins in presence of NADPH by LC-MS/MS analysis; type: ADME
Sequence of Cytochrome P450 3A4 (P08684 whole entry): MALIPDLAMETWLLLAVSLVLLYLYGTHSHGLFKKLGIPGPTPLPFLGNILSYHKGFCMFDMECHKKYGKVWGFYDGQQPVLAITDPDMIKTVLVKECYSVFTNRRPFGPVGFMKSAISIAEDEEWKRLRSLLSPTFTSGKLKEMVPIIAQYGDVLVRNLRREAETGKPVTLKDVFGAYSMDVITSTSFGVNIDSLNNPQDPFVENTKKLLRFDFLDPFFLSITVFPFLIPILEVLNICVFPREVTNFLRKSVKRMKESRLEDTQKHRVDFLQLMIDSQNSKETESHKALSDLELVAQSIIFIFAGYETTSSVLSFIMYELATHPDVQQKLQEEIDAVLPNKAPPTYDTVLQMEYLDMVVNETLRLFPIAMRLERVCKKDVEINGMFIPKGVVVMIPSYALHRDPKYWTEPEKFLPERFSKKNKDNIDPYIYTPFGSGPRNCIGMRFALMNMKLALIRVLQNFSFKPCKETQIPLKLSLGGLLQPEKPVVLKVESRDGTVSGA

[13] = Apparent permeability in human Caco2 cells; type: ADME, cell-based; details: Caco-2
[14] = Efflux ratio of permeability in human Caco2 cells; type: ADME, cell-based; details: Caco-2

T1 sequence (P48736 whole entry, canonical isoform): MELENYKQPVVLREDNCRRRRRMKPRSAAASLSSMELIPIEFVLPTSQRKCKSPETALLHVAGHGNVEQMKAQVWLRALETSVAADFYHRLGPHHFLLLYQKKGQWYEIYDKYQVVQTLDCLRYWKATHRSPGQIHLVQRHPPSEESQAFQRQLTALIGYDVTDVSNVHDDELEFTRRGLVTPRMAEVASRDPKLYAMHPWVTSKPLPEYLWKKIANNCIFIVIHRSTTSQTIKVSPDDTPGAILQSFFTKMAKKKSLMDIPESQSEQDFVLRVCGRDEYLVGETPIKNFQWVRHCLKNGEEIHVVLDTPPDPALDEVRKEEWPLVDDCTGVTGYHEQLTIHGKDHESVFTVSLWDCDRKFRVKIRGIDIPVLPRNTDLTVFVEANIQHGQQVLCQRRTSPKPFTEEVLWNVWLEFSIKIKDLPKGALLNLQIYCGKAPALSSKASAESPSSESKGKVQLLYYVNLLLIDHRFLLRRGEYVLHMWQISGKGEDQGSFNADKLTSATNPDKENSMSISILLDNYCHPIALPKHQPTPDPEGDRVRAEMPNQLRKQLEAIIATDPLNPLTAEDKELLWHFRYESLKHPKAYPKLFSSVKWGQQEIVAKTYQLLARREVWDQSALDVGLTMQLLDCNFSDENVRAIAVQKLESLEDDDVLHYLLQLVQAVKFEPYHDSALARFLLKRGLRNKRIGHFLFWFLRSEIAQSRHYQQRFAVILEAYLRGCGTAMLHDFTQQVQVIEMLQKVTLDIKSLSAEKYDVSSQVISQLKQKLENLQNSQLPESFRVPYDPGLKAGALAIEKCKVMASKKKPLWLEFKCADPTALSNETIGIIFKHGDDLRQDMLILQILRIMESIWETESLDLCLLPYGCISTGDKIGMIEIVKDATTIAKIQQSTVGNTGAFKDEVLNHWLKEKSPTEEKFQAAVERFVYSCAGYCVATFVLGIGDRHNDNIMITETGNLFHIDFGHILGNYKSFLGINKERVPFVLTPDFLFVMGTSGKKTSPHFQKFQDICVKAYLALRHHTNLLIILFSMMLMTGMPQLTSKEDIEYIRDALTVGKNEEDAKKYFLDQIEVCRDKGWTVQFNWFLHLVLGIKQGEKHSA

Row | IC50 [1] [nM] | Selectivity ratio [2] | Selectivity ratio [3] | IC50 [4] [nM] | CLH [5] [µL/min/1e6 cells] | CLH [6] [µL/min/1e6 cells] | clearance [7] [mL/min/kg] | IC50 [8] [nM] | IC50 [9] [nM] | IC50 [10] [nM] | IC50 [11] [nM] | IC50 [12] [nM] | Papp [13] [×10⁻⁶ cm/s] | efflux ratio [14] | SMILES
1 | 1.2 | 918 | 335 | 40 | < 1.2 | 2 |  |  |  |  |  |  |  |  | Cc1cc(-c2c[nH]c3ncc(-c4cc5c(c(C(F)(F)F)c4)C(=O)N([C@@H](C)C4CC4)C5)cc23)ccc1C(=O)O
2 | 3.3 | 863 | 1400 | 150 | 1.7 | 16 | 30 |  |  |  |  |  |  |  | Cc1cc(-c2cnc3[nH]cc(-c4ccc(C5(C(=O)O)CC5)cc4)c3c2)cc2c1C(=O)N([C@@H](C)C1CC1)C2
3 | 3.4 | 379 | 290 | 220 |  |  |  | 700 | 2000 | 300 | < 100 | 300 |  |  | Cc1cc(-c2cnc3[nH]cc(-c4ccncc4)c3c2)cc2c1C(=O)N([C@@H](C)C1CC1)C2
4 | 3.3 | 539 | 397 | 150 | 8 | 23 | 30 |  |  |  |  |  |  |  | Cc1cc(-c2c[nH]c3ncc(-c4cc(C)c5c(c4)CN([C@@H](C)C4CC4)C5=O)cc23)ccc1CC(=O)O
5 | 2.8 | 433 | 505 | 78 | 19 | 51 |  |  |  |  |  |  |  |  | Cc1cc(-c2c[nH]c3ncc(-c4cc(C)c5c(c4)CN([C@@H](C)C4CC4)C5=O)cc23)ccc1C(=O)O
6 | 2.5 | 259 | 136 | 140 | 24 | 54 | 183 |  |  |  |  |  | 1.07 | 46.6 | Cc1cc(-c2cnc3[nH]cc(-c4ccc(C(=O)O)cc4)c3c2)cc2c1C(=O)N([C@@H](C)C1CC1)C2
7 | 2.6 | 878 | 872 | 160 | 6.9 | 17 |  |  |  |  |  |  |  |  | Cc1cc(-c2cnc3[nH]cc(-c4ccc(CC(=O)O)cc4)c3c2)cc2c1C(=O)N([C@@H](C)C1CC1)C2
8 | 2.2 | 1520 | 1210 | 90 | 20 | 46 | 115 |  |  |  |  |  |  |  | Cc1cc(-c2c[nH]c3ncc(-c4cc(C)c5c(c4)CN([C@@H](C)C4CC4)C5=O)cc23)cc(C)c1C(=O)O
9 | 3.6 | 742 | 620 | 110 | 2.6 | 18 |  |  |  |  |  |  |  |  | C[C@@H](C1CC1)N1Cc2cc(-c3cnc4[nH]cc(-c5ccc(C6(C(=O)O)CC6)cc5)c4c3)cc(C(F)(F)F)c2C1=O
10 | 2.8 | 257 | 84 | 30 | 1.8 | < 1.2 | 467 |  |  |  |  |  |  |  | Cc1cc(-c2c[nH]c3ncc(-c4cc5c(c(C(F)(F)F)c4)C(=O)N([C@@H](C)C4CC4)C5)cc23)cc(C)c1C(=O)O
11 | 2.1 | 835 | 968 | 180 | 2.3 | 27 |  |  |  |  |  |  |  |  | Cc1cc(-c2cnc3[nH]cc(-c4ccc(C(C)(C)C(=O)O)cc4)c3c2)cc2c1C(=O)N([C@@H](C)C1CC1)C2
12 | 2.7 | 321 | 772 | 110 |  |  |  |  |  |  |  |  |  |  | Cc1cc(-c2cnc3[nH]cc(-c4cccc(C(=O)O)c4)c3c2)cc2c1C(=O)N([C@@H](C)C1CC1)C2
13 | 7.9 | 1050 | > 1180 | 730 |  |  |  |  |  |  |  |  |  |  | CNC(=O)c1cc(-c2cnc3[nH]cc(-c4cnn(C)c4)c3c2)cc2c1C(=O)N([C@@H](C)C1CC1)C2
14 | 3.7 | 1060 | 244 | 170 |  |  |  |  |  |  |  |  |  |  | C[C@@H](C1CC1)N1Cc2cc(-c3cnc4[nH]cc(-c5cnn(C)c5)c4c3)cc(C#N)c2C1=O
